Earlier results as cited in US20240299430A1, “METHODS AND COMPOSITIONS FOR TREATING LONG COVID-19” (Intrinsic Medicine, Inc., priority 2021, published 2024).

Key:
[1] = tested on: murine and human derived macrophages stimulated with LPS and various pro-inflammatory cytokines; conditions: in vitro
[2] = tested on: PDL1, COX2 and select chemokines, such as CCL2 (MCP1) and CCL5
[3] = tested on: mouse models of rheumatoid arthritis; conditions: administered orally, LPS challenge

Row | Compound | effect on IL-1β, IL-2, IL-4, IL-6, IL-12, IFN γ or TNF-α [1] | extent of cytokine reduction, 3′-SL compared with 6′SL [1] | effect on PDL1, COX2 and chemokines CCL2 (MCP1) and CCL5 [2] | clinical assessments of disease [3]
1 | CC(=O)N[C@H]1[C@H]([C@H](O)[C@H](O)CO)O[C@@](OC[C@H]2O[C@@H](O[C@H]3[C@H](O)[C@@H](O)[C@H](O)O[C@@H]3CO)[C@H](O)[C@@H](O)[C@H]2O)(C(=O)O)C[C@@H]1O [6′SL, 6′-sialyllactose] | reductions | – | – | –
2 | CC(=O)N[C@H]1C([C@H](O)[C@H](O)CO)O[C@@](O[C@@H]2C(O)[C@H](O[C@@H]3C(CO)O[C@@H](O)C(O)[C@H]3O)OC(CO)[C@@H]2O)(C(=O)O)C[C@H]1O (some centres unmarked) [3′SL, 3′-sialyllactose] | reductions | more significant reductions | reduce | –
3 | sialyllactose | – | – | – | benefit in clinical assessments of disease
